We go through two compounds from patent publication EP0013144A1, “Substituted diphenylamine derivatives, compositions and herbicidal uses thereof, and processes for their preparation” (ICI AUSTRALIA LIMITED, priority 1978, dated 1980).

Molecules are shown by their SMILES.

One test deals with Mustard. In words: Pre-emergence herbicidal activity (Example 31). To be noted: 1 kg/ha, after three weeks. The test is classed as in vivo. The essentials: (§1)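 Visual damage score at three weeks: 0 = 0–25% damage, 3 = 75–99% kill, 3+ = 100% kill. Soil boxes with seeds sown 2 cm deep were sprayed before emergence with water-diluted emulsifiable concentrate or suspension, then grown in a glasshouse alongside unsprayed controls.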
Take `COC(=O)C(C)Oc1ccc(Nc2ccc(Cl)cc2[N+](=O)[O-])cc1` (stereo not shown) [Compound 28]: the “damage to plants, Ms” value is reported as 0 (0 represents from 0 to 25% damage).
As for `C#CCN(c1ccc(OC(C)C(=O)OC)cc1)c1ccc(C(F)(F)F)cc1[N+](=O)[O-]` (stereo not shown) [Compound 81], the “damage to plants, Ms” value is 0 (0 represents from 0 to 25% damage).

The test is the same for the next values; noted with them: 5 kg/ha, after three weeks.
Turning to `COC(=O)C(C)Oc1ccc(Nc2ccc(Cl)cc2[N+](=O)[O-])cc1` (stereo not shown) [Compound 28], the “damage to plants, Ms” value is listed as 0 (0 represents from 0 to 25% damage).
The same measure, in the same setting: for `C#CCN(c1ccc(OC(C)C(=O)OC)cc1)c1ccc(C(F)(F)F)cc1[N+](=O)[O-]` (stereo not shown) [Compound 81] the value was 0 (0 represents from 0 to 25% damage).

A further test has as its system Wild Oats. Briefly: Pre-emergence herbicidal activity (Example 31). The format is in vivo. To be noted: 1 kg/ha, after three weeks. The essentials: as §1
As for `COC(=O)C(C)Oc1ccc(Nc2ccc(Cl)cc2[N+](=O)[O-])cc1` (stereo not shown) [Compound 28], the “damage to plants, Ot” value worked out at 2.

The test is the same for the next values; noted with them: 5 kg/ha, after three weeks.
For `COC(=O)C(C)Oc1ccc(Nc2ccc(Cl)cc2[N+](=O)[O-])cc1` (stereo not shown) [Compound 28], the “damage to plants, Ot” value is listed as 3+ (3+ represents 100% kill).

Another test relates to Japanese millet. Briefly: Pre-emergence herbicidal activity (Example 31). The format is in vivo. To be noted: 1 kg/ha, after three weeks. The essentials: as §1
As for `COC(=O)C(C)Oc1ccc(Nc2ccc(Cl)cc2[N+](=O)[O-])cc1` (stereo not shown) [Compound 28], the “damage to plants, Jm” value was 3+ (3+ represents 100% kill).
Consider `C#CCN(c1ccc(OC(C)C(=O)OC)cc1)c1ccc(C(F)(F)F)cc1[N+](=O)[O-]` (stereo not shown) [Compound 81], for which the “damage to plants, Jm” value is 3+ (3+ represents 100% kill).

Still in this test, the particulars now being: 5 kg/ha, after three weeks.
For the compound `COC(=O)C(C)Oc1ccc(Nc2ccc(Cl)cc2[N+](=O)[O-])cc1` (stereo not shown) [Compound 28], the “damage to plants, Jm” value is given as 3+ (3+ represents 100% kill).
Same read-out and setting: then `C#CCN(c1ccc(OC(C)C(=O)OC)cc1)c1ccc(C(F)(F)F)cc1[N+](=O)[O-]` (stereo not shown) [Compound 81], with 3+ (3+ represents 100% kill).

A further test has as its system Ipomea. Briefly: Pre-emergence herbicidal activity (Example 31). The test is classed as in vivo. To be noted: 1 kg/ha, after three weeks. The essentials:
as §1
Take `COC(=O)C(C)Oc1ccc(Nc2ccc(Cl)cc2[N+](=O)[O-])cc1` (stereo not shown) [Compound 28]: the “damage to plants, Ip” value is 0 (0 represents from 0 to 25% damage).
`C#CCN(c1ccc(OC(C)C(=O)OC)cc1)c1ccc(C(F)(F)F)cc1[N+](=O)[O-]` (stereo not shown) [Compound 81]: the “damage to plants, Ip” value was 0 (0 represents from 0 to 25% damage).

Still in this test, the particulars now being: 5 kg/ha, after three weeks.
In the case of `COC(=O)C(C)Oc1ccc(Nc2ccc(Cl)cc2[N+](=O)[O-])cc1` (stereo not shown) [Compound 28], the “damage to plants, Ip” value is given as 0 (0 represents from 0 to 25% damage).
On the same count and under the same terms, then `C#CCN(c1ccc(OC(C)C(=O)OC)cc1)c1ccc(C(F)(F)F)cc1[N+](=O)[O-]` (stereo not shown) [Compound 81], with 0 (0 represents from 0 to 25% damage).

The next test concerns Sunflower. Briefly: Pre-emergence herbicidal activity (Example 31). The test is classed as in vivo. To be noted: 1 kg/ha, after three weeks. The essentials: as §1
As for `COC(=O)C(C)Oc1ccc(Nc2ccc(Cl)cc2[N+](=O)[O-])cc1` (stereo not shown) [Compound 28], the “damage to plants, Sf” value is 0 (0 represents from 0 to 25% damage).
In the case of `C#CCN(c1ccc(OC(C)C(=O)OC)cc1)c1ccc(C(F)(F)F)cc1[N+](=O)[O-]` (stereo not shown) [Compound 81], the “damage to plants, Sf” value is on record as 0 (0 represents from 0 to 25% damage).

Staying with this test, now noted: 5 kg/ha, after three weeks.
With `COC(=O)C(C)Oc1ccc(Nc2ccc(Cl)cc2[N+](=O)[O-])cc1` (stereo not shown) [Compound 28], the “damage to plants, Sf” value is listed as 0 (0 represents from 0 to 25% damage).
Same read-out and setting: then `C#CCN(c1ccc(OC(C)C(=O)OC)cc1)c1ccc(C(F)(F)F)cc1[N+](=O)[O-]` (stereo not shown) [Compound 81], with 0 (0 represents from 0 to 25% damage).

A further test concerns Chenopodium album. Briefly: Pre-emergence herbicidal test, fibre trays (Example 33). The test is classed as in vivo. To be noted: 2.0 kg/ha, after 21 days. The essentials:
(§2)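 Scoring used a 0–5 scale (0 = 0–20% damage, 5 = complete kill) against untreated controls: day 21 for seeds sown in fibre trays, sprayed, then topped with soil; day 14 for sprayed young pot plants. Sprays were 40 ml aqueous dilutions of a surfactant/methylcyclohexanone emulsion.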
Regarding `C#CCN(c1ccc(OC(C)C(=O)OC)cc1)c1ccc(C(F)(F)F)cc1[N+](=O)[O-]` (stereo not shown) [Compound 81], the “herbicidal damage, Ca” value was 0 (0 is 0 to 20% damage).

In another test the test system is Soy bean. Described as above. The format is in vivo. To be noted: 1.0 kg/ha, after 21 days. The essentials: as §2
Consider `COC(=O)C(C)Oc1ccc(Nc2ccc(Cl)cc2[N+](=O)[O-])cc1` (stereo not shown) [Compound 28], for which the “herbicidal damage, Sy” value was 0 (0 is 0 to 20% damage).

Still in this test, the particulars now being: 2.0 kg/ha, after 21 days.
For the compound `C#CCN(c1ccc(OC(C)C(=O)OC)cc1)c1ccc(C(F)(F)F)cc1[N+](=O)[O-]` (stereo not shown) [Compound 81], the “herbicidal damage, Sy” value is reported as 0 (0 is 0 to 20% damage).

The next test has as its system Senecio vulgaris. The description is as above. The format is in vivo. To be noted: 1.0 kg/ha, after 21 days. The essentials: as §2
Turning to `COC(=O)C(C)Oc1ccc(Nc2ccc(Cl)cc2[N+](=O)[O-])cc1` (stereo not shown) [Compound 28], the “herbicidal damage, Sn” value is listed as 0 (0 is 0 to 20% damage).

Still in this test, the particulars now being: 2.0 kg/ha, after 21 days.
With `C#CCN(c1ccc(OC(C)C(=O)OC)cc1)c1ccc(C(F)(F)F)cc1[N+](=O)[O-]` (stereo not shown) [Compound 81], the “herbicidal damage, Sn” value is recorded as 0 (0 is 0 to 20% damage).

A further test has as its system Amaranthus retroflexus. Described as above. The test is classed as in vivo. To be noted: 1.0 kg/ha, after 21 days. The essentials: as §2
Consider `COC(=O)C(C)Oc1ccc(Nc2ccc(Cl)cc2[N+](=O)[O-])cc1` (stereo not shown) [Compound 28], for which the “herbicidal damage, Am” value was 0 (0 is 0 to 20% damage).

Staying with this test, now noted: 2.0 kg/ha, after 21 days.
Turning to `C#CCN(c1ccc(OC(C)C(=O)OC)cc1)c1ccc(C(F)(F)F)cc1[N+](=O)[O-]` (stereo not shown) [Compound 81], the “herbicidal damage, Am” value was 0 (0 is 0 to 20% damage).

Another test concerns Rape. The description is as above. To be noted: 1.0 kg/ha, after 21 days. The format is in vivo. The essentials:
as §2
Consider `COC(=O)C(C)Oc1ccc(Nc2ccc(Cl)cc2[N+](=O)[O-])cc1` (stereo not shown) [Compound 28], for which the “herbicidal damage, Rp” value is given as 0 (0 is 0 to 20% damage).

Still in this test, the particulars now being: 2.0 kg/ha, after 21 days.
`C#CCN(c1ccc(OC(C)C(=O)OC)cc1)c1ccc(C(F)(F)F)cc1[N+](=O)[O-]` (stereo not shown) [Compound 81]: the “herbicidal damage, Rp” value was 0 (0 is 0 to 20% damage).

In the next test the test system is Ipomea purpurea. The test is described as above. To be noted: 1.0 kg/ha, after 21 days. The test is classed as in vivo. The essentials:
as §2
Consider `COC(=O)C(C)Oc1ccc(Nc2ccc(Cl)cc2[N+](=O)[O-])cc1` (stereo not shown) [Compound 28], for which the “herbicidal damage, Ip” value is 0 (0 is 0 to 20% damage).

Still in this test, the particulars now being: 2.0 kg/ha, after 21 days.
As to `C#CCN(c1ccc(OC(C)C(=O)OC)cc1)c1ccc(C(F)(F)F)cc1[N+](=O)[O-]` (stereo not shown) [Compound 81], the “herbicidal damage, Ip” value was 0 (0 is 0 to 20% damage).

For a further test, the system named is Winter wheat. The test is described as above. The format is in vivo. To be noted: 1.0 kg/ha, after 21 days. The essentials:
as §2
On to `COC(=O)C(C)Oc1ccc(Nc2ccc(Cl)cc2[N+](=O)[O-])cc1` (stereo not shown) [Compound 28], for which the “herbicidal damage, Ww” value worked out at 2.

The test is the same for the next values; noted with them: 2.0 kg/ha, after 21 days.
Consider `C#CCN(c1ccc(OC(C)C(=O)OC)cc1)c1ccc(C(F)(F)F)cc1[N+](=O)[O-]` (stereo not shown) [Compound 81], for which the “herbicidal damage, Ww” value is on record as 4.

The subject of another test is Polygonum aviculare. The description is as above. The test is classed as in vivo. To be noted: 1.0 kg/ha, after 21 days. The essentials: as §2
On to `COC(=O)C(C)Oc1ccc(Nc2ccc(Cl)cc2[N+](=O)[O-])cc1` (stereo not shown) [Compound 28], for which the “herbicidal damage, Pi” value is recorded as 0 (0 is 0 to 20% damage).

Staying with this test, now noted: 2.0 kg/ha, after 21 days.
Turning to `C#CCN(c1ccc(OC(C)C(=O)OC)cc1)c1ccc(C(F)(F)F)cc1[N+](=O)[O-]` (stereo not shown) [Compound 81], the “herbicidal damage, Pi” value is 0 (0 is 0 to 20% damage).

The next test has as its system Wild Oats. In words: Post-emergence herbicidal activity (Example 32). The format is in vivo. To be noted: 1 kg/ha, 3 weeks after spraying. The essentials:
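Glasshouse-grown seedlings reaching roughly 10–12.5 cm height were sprayed with water-diluted formulations, either toluene-based emulsifiable concentrates or ball-milled suspensions. After a further 3 weeks, injury was scored by eye against untreated plants: 0 = 0–25% damage, 3 = 75–99% kill, 3+ = complete kill.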
On to `C#CCN(c1ccc(OC(C)C(=O)OC)cc1)c1ccc(C(F)(F)F)cc1[N+](=O)[O-]` (stereo not shown) [Compound 81], for which the “damage to plants, Ot” value is 3+ (3+ represents 100% kill).

Staying with this test, now noted: 5 kg/ha, 3 weeks after spraying.
On to `C#CCN(c1ccc(OC(C)C(=O)OC)cc1)c1ccc(C(F)(F)F)cc1[N+](=O)[O-]` (stereo not shown) [Compound 81], for which the “damage to plants, Ot” value was 3+ (3+ represents 100% kill).

The test system of another test is Wheat. Briefly: Pre-emergence herbicidal activity (Example 31). Details: key: 0-3 scale: 0 = 0-25% damage, 3 = 75-99% kill, 3+ = 100% kill. To be noted: 1 kg/ha, after three weeks. The format is in vivo. The essentials:
as §1
`COC(=O)C(C)Oc1ccc(Nc2ccc(Cl)cc2[N+](=O)[O-])cc1` (stereo not shown) [Compound 28]: the “damage to plants, Wh” value is given as 0 (0 represents from 0 to 25% damage).

Staying with this test, now noted: 5 kg/ha, after three weeks.
As to `COC(=O)C(C)Oc1ccc(Nc2ccc(Cl)cc2[N+](=O)[O-])cc1` (stereo not shown) [Compound 28], the “damage to plants, Wh” value amounted to 2.

In a further test the test system is Senecio vulgaris. Briefly: Post-emergence herbicidal test, young pot plants (Example 33). To be noted: 1.0 kg/ha, after 14 days. The test is classed as in vivo. The essentials:
as §2
`COC(=O)C(C)Oc1ccc(Nc2ccc(Cl)cc2[N+](=O)[O-])cc1` (stereo not shown) [Compound 28]: the “damage to test plants, Sn” value is 0 (0 is 0 to 20% damage).

Another test has as its system Rape. The description is as above. The test is classed as in vivo. To be noted: 2.0 kg/ha, after 14 days. The essentials:
as §2
For the compound `C#CCN(c1ccc(OC(C)C(=O)OC)cc1)c1ccc(C(F)(F)F)cc1[N+](=O)[O-]` (stereo not shown) [Compound 81], the “damage to test plants, Rp” value was 0 (0 is 0 to 20% damage).

The test system of the next test is Polygonum aviculare. Described as above. The format is in vivo. To be noted: 2.0 kg/ha, after 14 days. The essentials:
as §2
Consider `C#CCN(c1ccc(OC(C)C(=O)OC)cc1)c1ccc(C(F)(F)F)cc1[N+](=O)[O-]` (stereo not shown) [Compound 81], for which the “damage to test plants, Pi” value was 0 (0 is 0 to 20% damage).
